Source: patent US20120302546A1, “NOVEL SULFAMIDES EXHIBITING NEUROPROTECTIVE ACTION AND METHODS FOR USE THEREOF” (FOX CHASE CHEMICAL DIVERSITY CENTER, INC., priority 2010, published 2012)

Legend:
[1] = test system: MES-induced seizure spread; experiment: Maximal Electroshock Seizure (MES) test in mice; assay type: in vivo; details: Mouse MES, intraperitoneal, vehicle methylcellulose
Procedure: (§1) Methods to measure anticonvulsant activity: All tests were conducted by the Anticonvulsant Screening Program (ASP) of the National Institute of Neurological Disease and Stroke at the National Institutes of Health. The Maximal Electroshock Seizure (MES) or Maximal Seizure Pattern Test: The MES is a model for generalized tonic-clonic seizures (Putnam and Merritt, 1937). It is highly reproducible with consistent endpoints. The behavioral and electrographic seizures generated in this model are consistent with the human disorder. This model identifies those compounds which prevent seizure spread. In the MES test, an electrical stimulus of 0.2 s in duration (50 mA in mice and 150 mA in rat at 60 Hz) is delivered via corneal electrodes primed with an electrolyte solution containing an anesthetic agent. Mice are tested at 30 minutes and 4 hours following doses of 30, 100 and 300 mg/kg of test compound. Test compounds are administered intraperitoneally to the mice. Rats are tested at time intervals between 0.25 and 4 hours following a standard oral dose of 30 mg/kg. Abolition of the hindlimb tonic extensor component indicates the test compound's ability to inhibit MES-induced seizure spread.

[2] = test system: MES-induced seizure spread; experiment: Maximal Electroshock Seizure (MES) test in rats; assay type: in vivo; details: Rat MES, 30 mg/kg, oral, vehicle methylcellulose
Procedure: as §1

[3] = test system: 6 Hz corneal stimulation evoked seizures; experiment: 6 Hz psychomotor seizure test in mice; assay type: in vivo; details: Mouse 6 Hz, 100 mg/kg, intraperitoneal, vehicle methylcellulose
Procedure: Methods to measure anticonvulsant activity: All tests were conducted by the Anticonvulsant Screening Program (ASP) of the National Institute of Neurological Disease and Stroke at the National Institutes of Health. The 6 Hz Seizure Test: Compounds were further tested in the 6-Hz psychomotor seizure model (Barton et al., 2001). This model is used to detect seizures that may be useful for the treatment of therapy-resistant partial seizures. For this test, an alternative electrical stimulation paradigm is used with a low frequency (6 Hz), long duration (3 seconds) corneal stimulation. The seizure evoked by this low frequency stimulation is characterized by immobility, forelimb clonus, Straub tail and facial automatisms (Barton et al., 2001). Mice are tested from 15 min to 4 hours following an intraperitoneal dose of 100 mg/kg. Abolition of the clonic seizures indicates the ability of a compound to prevent partial or psychomotor seizures.

[4] = test system: Hippocampal Cultures; experiment: Neuroprotection from glutamate excitotoxicity, CFDA neuronal viability assay; assay type: cell-based, rat; details: day 20 hippocampal cultures, 5 min 30 μM glutamate, CFDA assay 24 hours after initiation of treatment (FIG. 1-3)
Procedure: Pharmacology: Hydroxyethyl sulfamides attenuate glutamate-mediated neuronal viability. As an example, compound II, shown above, is shown to attenuate a decrease in carboxyfluorescein diacetate (CFDA) produced by acute treatment with glutamate in FIG. 1. For these studies, day 20 hippocampal cultures derived from E18 rats were treated for 5 min with 30 μM glutamate. Following removal of the glutamate, cultures were treated with various concentrations of compound II and the CFDA neuronal viability assay was conducted 24 hours after the initiation of treatment. The dotted line labeled “control” represents the mean CFDA value for control culture receiving no treatment. The dotted line labeled “carisbamate” represents the mean CFDA value for the reference compound carisbamate, a putative neuroprotective, anticonvulsant. For the CFDA measurements, RFU is the abbreviation for relative fluorescent units. The reference anticonvulsant compound carisbamate was tested at 100 μM, as lower concentrations were ineffective.
Cell cultures: All compounds are screened with dissociated hippocampal cultures derived from embryonic day 18 rats as the primary test system. With this preparation, primary neurons are used to test for toxicity as well as neuroprotection in a highly relevant experimental system to epilepsy. In brief, hippocampal tissue are obtained commercially through Brain Bits (Springfield, Ill.) and cultures prepared as previously described by Brewer (Brewer, G. J. Serum-free B27/neurobasal medium supports differentiated growth of neurons from the striatum, substantia nigra, septum, cerebral cortex, cerebellum and dentate gyms, J. Neurosci. Res. 1995, 42, 674-683.). The hippocampal neurons are platted at low density (10,000 cell/well) in a 96-well format and maintained in serum-free medium consisting of Neurobasal Medium supplemented with B27 and GlutaMAX (Gibco). Pre-coated poly-L-lysine coated plates are used because of the preferential adherence and survival of hippocampal neurons on this matrix support.
Carboxyfluorescein (CFDA) was used a vital stain for all cell toxicity and neuroprotection studies. With the use of the CytoFluor fluorimeter, the CFDA assay was employed to assess the viability of neurons. CFDA is a dye that becomes fluorescent upon cell entry and cleavage by cytosolic esterases (Petroski, R. E.; Geller, H. M Selective labeling of embryonic neurons cultures on astrocyte monolayers with 5(6)-carboxyfluorescein diacetate (CFDA). J. Neurosci. Methods 1994, 52, 23-32.). Neuronal specificity is obtained relative to astrocytes because the cleaved dye is extruded extracellularly by glia with time, while dye in neurons remains intracellular. […] To further assess the culture responses, a propidium iodide method was used as previously described (Sarafian, T. A.; Kouyoumjian, S.; Tashkin, D.; Roth, M. D. Synergistic cytotoxicity of 9-tetrahydrocannabianol and butylated hydroxyanisole, Tox. Letters, 2002. 133, 171-179.) to measure the number of dead cells. Propidium iodide becomes fluorescent when binding to the DNA of dead cells. Cultures were treated on day 2 with the test agent and then the two assays were conducted after a […] test period. For all assays, a 96-well format was used. For the screen, log concentration-effect studies were conducted from 10 nM to 1 mM with 8 replications. The duration of the test period was five days. Cultures were given a complete change of medium prior to the initiation of the treatment period.
Potent neuroprotection is the distinguishing characteristic that separates this program's anticonvulsants from all other commercial drugs for epilepsy. The experimental details and the rationale for the implemented assays are essential in differentiating these compounds from that of others. The central objective of all neuroprotective assays was their relevancy to excitotoxicity and oxidative stress related to epilepsy. […]

[5] = test system: Hippocampal Cultures; experiment: Neuroprotection from glutamate excitotoxicity, propidium iodide cell death assay; assay type: cell-based, rat; details: Day 15 Hippocampal Cultures, 30 μM glutamate (FIG. 5)

Compound | # animals active/# animals tested ([1]; 30 mg/kg, 0.5 hr) | # animals active/# animals tested ([1]; 100 mg/kg, 0.5 hr) | # animals active/# animals tested ([1]; 300 mg/kg, 0.5 hr) | # animals active/# animals tested ([2]; 0.25 hr) | # animals active/# animals tested ([2]; 0.5 hr) | # animals active/# animals tested ([3]; 0.25 hr) | # animals active/# animals tested ([3]; 0.5 hr) | # animals active/# animals tested ([3]; 1.0 hr) | # animals active/# animals tested ([3]; 2.0 hr) | # animals active/# animals tested ([1]; 30 mg/kg, 4 hr) | # animals active/# animals tested ([1]; 100 mg/kg, 4 hr) | # animals active/# animals tested ([1]; 300 mg/kg, 4 hr) | # animals active/# animals tested ([2]; 1 hr) | # animals active/# animals tested ([2]; 2 hr) | # animals active/# animals tested ([2]; 4 hr) | # animals active/# animals tested ([3]; 4.0 hr) | effect on glutamate-mediated decrease in neuronal viability (CFDA) [4] | effect on glutamate-mediated increase in cell death (propidium iodide) [5]
NS(=O)(=O)NC[C@@H](O)c1ccccc1Cl [drawing 54] | 0/1 | 2/3 | 1/1 | 1/4 | 0/4 | 0/4 | 1/4 | 1/4 | 0/4 | – | – | – | – | – | – | – | – | –
NS(=O)(=O)NCC(O)c1ccccc1F (stereo not shown) [drawing 55] | – | – | – | – | – | 0/4 | 1/4 | 1/4 | 1/4 | 0/1 | 1/3 | 1/1 | 0/4 | 1/4 | 2/4 | 1/4 | – | –
NS(=O)(=O)NC[C@@H](O)c1ccccc1Cl [compound III] | – | – | – | – | – | – | – | – | – | – | – | – | – | – | – | – | efficacious | efficacious
